The record followed here is US20260284050A1, “ACTIVATORS OF THE COLD STRESS RESPONSE AND USES THEREOF” (priority 2023, published 2026).

The structures appear in SMILES notation. Like-named read-outs stand apart in the source and are kept apart here. Where a SMILES comes first, the peptide text is derived from it. The star is where a group is joined. Cbz = O=C(OCc1ccccc1)* Bounds are passed on as bounds.

In one data set the test system is SP1+MCRE-MHI. Description: cells. The note with it: HEK293FT; for fold induction at 20 µM: Homo sapiens. On the procedure: Briefly, Lipofectamine 3000 (Thermofisher Scientific, L3000015) was used to transfect the SP1+MCRE indicator into the HEK293FT cell line. 24 h after transfection, 30000 cells were plated into each well of a 96 well black well plate. 48 h after transfection the cells were exposed to FDA Approved Drug Screening Library (L1300-Z298012) via the High Throughput Screening Services (ChemCore) at Johns Hopkins University. Each drug was exposed in 20 μM concentration. Total well GFP was read with the ClarioStarPlus Plate Reader (settings: gain 1500, 470-15 excitation and emission 515-20 at focal height 2.6) 16, 28, and 40 h after exposure of the library. Increase in fluorescence was calculated with dividing GFP reads from positive control at each time point with GFP reads of each well exposed to drug at the same timepoint for wells in the same lane. Compounds were validated in same concentration (20 μM). For validation cells were exposed to the drug for 24 hours, and evaluated by FACS as described in the section Transfection of indicators into cell lines.
To explore this in an unbiased manner, a systematic library drug screen (1953 FDA-approved inhibitors) was performed using HEK293FT cells transfected with the SP1+MCRE-MHI. […] Cells transfected with said MHI were exposed to the drug library (20 μM concentration) and fluorescence was measured after 16-, 28- and 40-hours of drug exposure. Drugs that could increase the indicator's fluorescence at least >3.75 times at one of the time points were further investigated.

A further data set concerns SP1-MHI. Description: FACS validation in HEK293 cells with Cas9 and SP1-MHI. In kind it is cell-based, human. The note with it: 20 μM. On the procedure: HEK293 cell lines were transfected when 70-90% confluency was reached. Either Lipofectamine™ 2000 or 3000 (Thermofisher Scientific, #11668027, #L3000015) was used according to the manufacture's protocol. The fluorescence of the indicators was measured via FACS up to 48 hours after transfection. FACS data were analysed with the FlowJo Software, where gates were created on living cells, single cells, GFP positive cells and the fluorescence for that population was measured.
Each drug was exposed in 20 μM concentration. […] Compounds were validated in same concentration (20 μM).
HEK293 cells with Cas9 and SP1-MHI were individually exposed to each compound (20 μM) for 16 hours at either 32° C. or 37° C. followed by FACS. […] (Entacapone, Poziotinib), indicating activation of response with drug without hypothermic stimulus.

In the next data set the test system is HEK293 cells. Description: Cell cycle phase evaluation of HEK293 cells. In kind it is cell-based, human. The note with it: for cell cycle arrest: HEK293 cells exposed to compound. On the procedure:
To exclude the possibility of cell cycle arrest or increased apoptosis, cell cycle phase of HEK293 cells exposed to Pozitinib and Entacapone was evaluated. […] Similarly, there were no signs of activation of the MHIs after exposure to an apoptotic agent.

Another data set has as its system SP1, RBM3 and CIRBP. Description: Western blot of SP1, RBM3 and CIRBP after compound exposure. The data set is classed as cell-based, human. The following applies: 24 h exposure at either 32° C. or 37° C. On the procedure:
(§1) Cells were washed with PBS and then lysed for 30 min on ice in RIPA buffer (50 mM Tris HCl ph8, 150 mM NaCl, 1% NP-40, 1% Sodium deoxycholate, 0.1% SDS, 2 mM EDTA, phosphatase inhibitor (Cell signaling, Cat. #5870S), and Halt™ Protease Inhibitor Cocktail (Thermo Fisher, Cat. #78437). The lysates were centrifuged at 16,000×g for 20 minutes at 4° C. and the supernatants were collected. The supernatants were diluted with 4× loading buffer (Li-cor) and heated at 95° C. for 5 mins. The protein concentration was measured using Pierce™ BCA Assay Kit (Thermo Fisher). 20-30 μg protein samples were loaded into gels and separated by SDS-PAGE. They were transferred to polyvinylidene fluoride (PVDF) membranes and blocked in 5% bovine serum albumin in Tris-buffered saline with Tween 20 for 1 hour. Primary antibodies (rabbit anti-CIRBP, 1:2000, Cat. #10209-2-AP, Proteintech; rabbit anti-RBM3, 1:1000, CAT. #14363-1-AP, Proteintech; rabbit anti-SP1 1:1000, CAT. #21962-1-AP, Proteintech; mouse anti-Lamin 1, 1:5000, CAT. #66095-1-Ig, Proteintech; rabbit anti-SMYD5, 1:1000, in-house; rabbit anti-Phospho-SP1, 1:1000, CAT. #PA5-104771, Proteintech) were applied to respective membranes after washing, and incubated at 4° C. overnight. […] After washing, the protein bands were visualized on the Odyssey® CLx Infrared Imaging System and quantified by Image J software.
On the technique in general: Immunoblotting shows a protein as a band on a membrane.

A further data set relates to SMYD5. Description: SMYD5 levels at 32° C. with proteasome inhibition. In kind it is cell-based, human. The following applies: 6 hour exposure. On the procedure:
as §1, with “software. […]” for “software.”

The subject of another data set is RBM3. Description: RT-qPCR of endogenous RBM3 relative to GAPDH. The data set is classed as cell-based, human. The note with it: 16 h exposure at 37° C. On the procedure:
(§2) Total RNA from cells incubated at 32° C. or 37° C. was isolated, using Direct-zol™ RNA Microprep (Zymo Research, R2062), according to the manufacturer's instructions. The concentration of RNA was measured by NanoDrop™ One Microvolume UV-Vis Spectrophotometer (Thermo Scientificv™) followed by cDNA synthesis with High-Capacity cDNA Reverse Transcription Kit (Applied Biosystems™, 4368814) on MiniAmp™ Thermal Cycler (Applied Biosystems™). qPCR was performed using Luna® Universal qPCR Master Mix on CFX384™ Real-Time PCR Detection System (Bio-Rad). Each biological replicate of the RT-qPCR assay in this study was carried out in technical triplicates. Any technical replicate that deviated from other replicates by 0.4 cycle threshold (Ct) was removed from calculations of average Ct values. The primers used in this study are as follows: […]
(§3) To evaluate effects on the endogenous loci (CIRBP, RBM3 and SP1) real time quantitative polymerase chain reaction (RT-qPCR) was carried out after 16 h of either 32° C. or 37° C.—with or without the exposure to the compound during that time.
For orientation: Real-time PCR tracks product formation cycle by cycle.

For a further data set, the system named is SP1. Description: RT-qPCR of endogenous SP1 relative to GAPDH. The data set is classed as cell-based, human. The note with it: 16 h exposure at 37° C. On the procedure:
as §2, §3

A further data set deals with CIRBP. Description: RT-qPCR of endogenous CIRBP relative to GAPDH. The data set is classed as cell-based, human. The following applies: 16 h exposure at 37° C. On the procedure:
as §2, §3

Setting [1] is: 40 h, read-out: increase in fluorescence of the SP1+MCRE-MHI.

For the molecule `CN(C)C/C=C/C(=O)Nc1cc2c(Nc3ccc(F)c(Cl)c3)ncnc2cc1O[C@H]1CCOC1` [Afatinib], the fold induction at 20 µM with SP1+MCRE-MHI (setting [1]) was more than 3.75.

Take `C[C@@H](NCCCc1cccc(C(F)(F)F)c1)c1cccc2ccccc12` [Cincalcet]: the “increase in fluorescence of the SP1+MCRE-MHI” value in the data set with SP1+MCRE-MHI (20 μM, at one of the time points (16, 28, 40 h of drug exposure)) is listed as more than 3.75 times.

As for `Cc1nc(Nc2ncc(C(=O)Nc3c(C)cccc3Cl)s2)cc(N2CCN(CCO)CC2)n1` [Dasatinib], the fold induction at 20 µM with SP1+MCRE-MHI (setting [1]) is more than 3.75. Turning to `CCN(CC)C(=O)/C(C#N)=C/c1cc(O)c(O)c([N+](=O)[O-])c1` [Entacapone], the fold induction at 20 µM in the data set on SP1+MCRE-MHI (setting [1]) was more than 3.75. The “mean fluorescence of SP1-MHI by FACS” value in the data set on SP1-MHI (16 hours at 32° C.) was “significantly (P<0.01) potentiate fluorescence levels”; in the data set on SP1-MHI (16 hours at 37° C.), “significantly (P<0.001, P<0.0001) increased fluorescence”. For the same molecule, the “percentage of total cells in the S phase of cell cycle” value in the data set on HEK293 cells (16 hours exposure at both 32° C. and 37° C.) is “slight increase”. The cell cycle arrest entry in the data set on HEK293 cells is given as “Any signs of cell cycle arrest”. Also, the “Western blot of SP1, RBM3 and CIRBP with versus without compound” value in the data set with SP1, RBM3 and CIRBP is “significant difference (P<0.05”. For the molecule `CC[C@H]1OC(=O)[C@H](C)[C@@H](O[C@H]2C[C@@](C)(OC)[C@@H](O)[C@H](C)O2)[C@H](C)[C@@H](O[C@@H]2O[C@H](C)C[C@H](N(C)C)[C@H]2O)[C@](C)(O)C[C@@H](C)C(=O)[C@H](C)[C@@H](O)[C@]1(C)O` [Erythromycin], the fold induction at 20 µM in the data set on SP1+MCRE-MHI (setting [1]) was more than 3.75. Still for that read-out and setting: under `CS(=O)(=O)CCNCc1ccc(-c2ccc3ncnc(Nc4ccc(OCc5cccc(F)c5)c(Cl)c4)c3c2)o1` [Lapatinib] stands more than 3.75. As to `CC(C)C[C@@H](C=O)NC(=O)[C@H](CC(C)C)NC(=O)[C@H](CC(C)C)NC(=O)OCc1ccccc1` [MG132] (Cbz-Leu-Leu-Leu-aldehyde), the SMYD5 levels entry in the data set with SMYD5 is “increases levels of SMYD5 at 32 °C to levels seen at 37 °C”. Consider `C=CCN1CC[C@]23c4c5ccc(O)c4O[C@H]2C(=O)CC[C@@]3(O)[C@H]1C5` [Naloxone], for which the fold induction at 20 µM in the data set with SP1+MCRE-MHI (setting [1]) was more than 3.75. On the same count and under the same terms, the value for `Cc1[nH]c(/C=C2\C(=O)Nc3ccccc32)c(C)c1CCC(=O)O` [Orantinib] was more than 3.75. Turning to `C=CC(=O)N1CCC(Oc2cc3c(Nc4ccc(Cl)c(Cl)c4F)ncnc3cc2OC)CC1` [Poziotinib], the fold induction at 20 µM in the data set with SP1+MCRE-MHI (setting [1]) was more than 3.75. In the data set on SP1-MHI (16 hours at 37° C.), the “mean fluorescence of SP1-MHI by FACS” value was “significantly (P<0.001, P<0.0001) increased fluorescence”. Moreover, in the data set with HEK293 cells, the cell cycle arrest result is “Any signs of cell cycle arrest”. Besides, the “RBM3 mRNA expression” value in the data set on RBM3 was “significantly (P<0.05) increased”. Moreover, the “SP1 mRNA expression” value in the data set with SP1 was “trend towards increase”. In addition, the “CIRBP mRNA expression” value in the data set on CIRBP is on record as “trend towards increase”. Consider `C=CC(=O)Nc1cccc(Nc2nc(Nc3ccc(N4CCN(C(C)=O)CC4)cc3OC)ncc2C(F)(F)F)c1` [Rociletinib], for which, in the data set with SP1+MCRE-MHI (setting [1]), the fold induction at 20 µM was more than 3.75. The same measure, in the same setting: the value for `CC/C(=C(\c1ccccc1)c1ccc(OCCN(C)C)cc1)c1ccccc1` [Tamoxifen] was more than 3.75. `Cc1ccc(C(=O)c2cc(O)c(O)c([N+](=O)[O-])c2)cc1` [Tolcapone]: the fold induction at 20 µM worked out at 1.8 with SP1+MCRE-MHI (16 h, read-out: relative increase of fluorescence of the SP1+MCRE-MHI compared to control); 1.7 with SP1+MCRE-MHI (28 h, read-out: relative increase of fluorescence of the SP1+MCRE-MHI compared to control); 1.9 with SP1+MCRE-MHI (40 h, read-out: relative increase of fluorescence of the SP1+MCRE-MHI compared to control).
